In data set [1] the test system is primary human hepatocytes (PHH). On the procedure:
PHH either in control 2D culture (2D) or in 3D culture established according to the method of the invention in a collagen matrix (3D) were incubated with the indicated genotoxic drugs at the indicated concentrations (see Table 7) from the start of the culture. After 9 days, PHH were extracted from the collagen matrix by the action of purified collagenase. The cell pellets were resuspended in 0.5% low-melting point agarose and laid on conventional microscope slides covered with regular agarose. The electrophoresis migration was processed and after staining with propidium iodide, at least 100 images were acquired using a fluorescence microscope. The images were analyzed using the Comet Assay IV software. The extent of DNA damage in individual cells was evaluated by the percentage of tail DNA.

The test system is the same in data set [2]. The class given is cell-based. On the procedure:
After 9 days, immuno-histochemical staining was performed as described hereinabove to detect the presence of phosphorylated H2AX (i.e., γH2Ax), a marker of DNA double-strand break, in the PHH.

The test system is the same in data set [3]. This is another data set of the same source.
Data set [4] deals with MAPK MEK1/2-ERK1/2 pathway.
Data set [5] concerns CYP1A2. The class given is cell-based, human. The following applies: 3-MC 5 μM for 24 h; 3D versus control 2D culture. On the procedure: Then, total RNA was extracted from cell pellets using NucleoSpin RNA (Macherey-Nagel, Hoerdt, France) and the concentration of total RNA was measured with a NanoDrop ND-1000 (NanoDrop Technologies, Wilmington, USA). Total RNA was used for cDNA synthesis using the High Capacity cDNA reverse transcription kit (Applied Biosystems, Saint Aubin, France). Real-time PCR for all genes was performed using SYBR green technology with the Power SYBR Green PCR master mix (Applied Biosystems, Saint Aubin, France) and the CFX384 Real-Time System (Biorad) according to the manufacturer's recommendations. Primer sequences used are described in Tables 2 and 3 below.
The amplification curves were analyzed with the Biorad CFX Manager software using the comparative regression method. GAPDH was used for the normalization of expression data. The relative amount of measured mRNA in samples was determined using the 2-ΔΔCT method where ΔΔCT=(CTtarget-CTGAPDH)sample−(CTtarget-CTGAPDH)calibrator. Final results were expressed as the n-fold differences in target gene expression in tested samples when compared with the mean expression value of calibrator. Values are given for one experiment representative of at least three independent experiments.

The test system of data set [6] is CYP 1A1/2. To be noted: human.

Read-outs that look alike come from different tables or passages of the source.

As to `Nc1ccc(-c2ccccc2)cc1` [4-ABP, 4-aminobiphenyl], in data set [1], the “levels of DNA damages in 3D culture, in words” value was “higher (about the double) and dose-dependent levels of DNA damages”. For the same compound, the “levels of DNA damages (percentage of tail DNA)” value in data set [1] (human) is “about 3%”. The “PHH with DNA damages (γH2Ax positive cells)” value in data set [2] (human) is reported as “about 50%”.

With `N#CC(=C(/N)Sc1ccccc1N)/C(C#N)=C(\N)Sc1ccccc1N` [U0126], in data set [3], the “Ki67 / cyclin D1 positive cells after transient MEK/ERK inhibition” value is listed as “No positive cells could be detected”. Further, the “ERK1/2 activity (ERK1/2 phosphorylation)” value in data set [4] was “strong inhibition of ERK1/2 activity”.

As to aflatoxin B1 [AFB1], the “PHH with DNA damages (γH2Ax positive cells)” value in data set [2] is reported as “about 35%”.

As for `Cc1ccc2cc3c(ccc4ccccc43)c3c2c1CC3` [3-MC, 3-methylcholanthrene], the “CYP1A2 mRNA expression after 3-MC induction” value in data set [5] is “significantly increased CYP1A2 mRNA expression in PHH in 3D culture as compared to that in PHH in control 2D culture”. The “induction of CYP1A (EROD) activity” value in data set [6] is “potentialization of 3-methylcholanthrene (3-MC) induction of CYP1A (EROD) activity was only observed in PHH in 3D culture”.

For the origin of these results see patent US20210189346A1, “METHOD OF CULTURING PROLIFERATIVE HEPATOCYTES” (INSERM (INSTITUT NATIONAL DE LA SANTÉ ET DE LA RECHERCHE …, priority 2018, published 2021).
